Measured values as given in publication PMC4745926, “Absorption, Metabolism, and Excretion by Freely Moving Rats of 3,4-DHPEA-EDA and Related Polyphenols from Olive Fruits (Olea europaea)” (Journal of Nutrition and Metabolism, 2016).

Assay: Recovery of 3,4-DHPEA-EDA spiked into rat plasma
Assay type: in vitro ADME
Conditions: recovery yield check
Procedure: After oral administration of 3,4-DHPEA-EDA, HT (27.7 AUC0→4 h-i.g./Dosei.g.), HVAOH (4.2 AUC0→4 h-i.g./Dosei.g.), and HVA (4.5 AUC0→4 h-i.g./Dosei.g.) were detected in the portal plasma. Low absorption of 3,4-DHPEA-EDA is reported in some papers. […] Plasma components such as serum albumin, serum lipoprotein, and glycoprotein may have bound 3,4-DHPEA-EDA and hindered its detection. 3,4-DHPEA-EDA as a dialdehyde form might quickly bind to proteins bearing primary amines such as globulins, albumins, and other functional proteins in blood plasma, as malondialdehyde does. […] To our knowledge, this is the first report of the formation of HVAOH from 3,4-DHPEA-EDA.

In the case of `CC=C(C=O)C(CC=O)CC(=O)OCCc1ccc(O)c(O)c1` (stereo not shown) [3,4-DHPEA-EDA, 3,4-dihydroxyphenylethyl elenolate dialdehydic form], the “Recovery of 3,4-DHPEA-EDA spiked into rat plasma” value is reported as “could not be detected”.
